From publication PMC9611657, “Bruton’s Tyrosine Kinase Inhibitor Zanubrutinib Effectively Modulates Cancer Resistance by Inhibiting Anthracycline Metabolism and Efflux” (Pharmaceutics, 2022) come the findings set out here.

SMILES strings stand for the structures.

For assay [1], the target named is T1, aldo-keto reductase 1C3 (AKR1C3) (Homo sapiens, UniProt P42330).
T1 construct: human recombinant AKR1C3 from E. coli BL21(DE3), HisTrap purified
T1 sequence (P42330 1-323): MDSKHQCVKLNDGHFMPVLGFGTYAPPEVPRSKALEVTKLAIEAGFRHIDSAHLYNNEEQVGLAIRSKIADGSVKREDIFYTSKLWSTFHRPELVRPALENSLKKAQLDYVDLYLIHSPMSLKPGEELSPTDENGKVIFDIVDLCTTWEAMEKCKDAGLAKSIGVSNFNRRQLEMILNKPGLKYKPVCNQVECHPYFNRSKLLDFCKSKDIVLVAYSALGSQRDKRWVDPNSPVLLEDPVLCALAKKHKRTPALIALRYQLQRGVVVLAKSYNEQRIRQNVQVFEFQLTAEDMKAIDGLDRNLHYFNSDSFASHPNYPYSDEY
Briefly: reduction to daunorubicinol by recombinant enzyme (DAUN […]), UHPLC, Michaelis-Menten kinetics. Format: biochemical.

The target of assay [2] is T1, aldo-keto reductase 1C3 (AKR1C3). Briefly: inhibition of daunorubicin reduction by recombinant enzyme, UHPLC of DAUN-OL, Michaelis-Menten/Lineweaver-Burk. In kind it is biochemical.

Consider `COc1cccc2c1C(=O)c1c(O)c3c(c(O)c1C2=O)C[C@@](O)(C(C)=O)C[C@@H]3O[C@H]1C[C@H](N)[C@H](O)[C@H](C)O1` [DAUN, Daunorubicin], for which, in assay [1], the “reduction to daunorubicinol by recombinant enzyme (DAUN 200-2000 μM), UHPLC, Mic” value is reported as “AKR1C3 was incubated with the substrate DAUN, with or without ZAN”.
A word on the Ki: it is the equilibrium dissociation constant of an inhibitor or competing ligand from its target. As for `C=CC(=O)N1CCC([C@@H]2CCNc3c(C(N)=O)c(-c4ccc(Oc5ccccc5)cc4)nn32)CC1` [ZAN, Zanubrutinib], the Ki in assay [2] stood at 2900 nM.
